Results as given in patent US20100160262A1, “COMPOSITIONS AND METHODS FOR MODULATING SIRTUIN ACTIVITY” (priority 2008, published 2010).

Experiments:
[1] = target: T1, SIRT1 (Homo sapiens, UniProt Q96EB6); assay: In vitro Tat deacetylation assay with immunoprecipitated SIRT1; assay type: biochemical; details: immunoprecipitated SIRT1, AcTat, NAD+; western blot α-AcTat; nicotinamide 5 mM, TSA 400 nM
T1 construct: made in house; host or cells: 293 cells (HEK 293), transient transfection, anti-FLAG M2 agarose immunoprecipitate
T1 sequence (Q96EB6 1-747): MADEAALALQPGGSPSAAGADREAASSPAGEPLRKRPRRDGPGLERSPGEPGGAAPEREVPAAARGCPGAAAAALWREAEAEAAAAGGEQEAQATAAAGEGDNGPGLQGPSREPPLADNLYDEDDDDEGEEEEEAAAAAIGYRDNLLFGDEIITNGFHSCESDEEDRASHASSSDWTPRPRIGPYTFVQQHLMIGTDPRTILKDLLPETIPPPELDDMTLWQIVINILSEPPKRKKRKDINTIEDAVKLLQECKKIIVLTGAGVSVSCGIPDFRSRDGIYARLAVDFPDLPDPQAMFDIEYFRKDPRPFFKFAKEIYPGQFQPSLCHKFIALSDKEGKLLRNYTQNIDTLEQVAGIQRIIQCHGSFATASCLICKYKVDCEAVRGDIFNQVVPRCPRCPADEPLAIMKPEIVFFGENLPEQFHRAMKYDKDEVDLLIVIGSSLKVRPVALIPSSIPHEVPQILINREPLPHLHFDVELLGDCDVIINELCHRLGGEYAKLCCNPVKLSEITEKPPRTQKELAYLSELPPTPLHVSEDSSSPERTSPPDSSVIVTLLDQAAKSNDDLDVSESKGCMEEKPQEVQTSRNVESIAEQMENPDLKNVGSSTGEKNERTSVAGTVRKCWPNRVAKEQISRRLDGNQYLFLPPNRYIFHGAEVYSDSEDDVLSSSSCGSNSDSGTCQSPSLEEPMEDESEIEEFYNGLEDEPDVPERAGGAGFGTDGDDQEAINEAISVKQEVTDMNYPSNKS
Protocol: Human SIRT1-7 FLAG-tagged plasmids were transfected in 293 cells with lipofectamine reagent (Invitrogen). Cells were lysed 24 hours after transfection with lysis buffer (50 mM Tris-Hcl, pH 7.5, 0.5 mM EDTA, 0.5% NP40, 150 mM NaCl) in the presence of protease inhibitors (Roche Molecular Biochemicals, Indianapolis, Ind.). Equal amounts of total proteins were immunoprecipitated with α-FLAG (anti-FLAG antibody) coupled to M2 agarose beads (Sigma, St Louis, Mo.), for 2 hours at 4° C. Immunoprecipitated material was washed twice with immunoprecipitation (IP) buffer and one time with SIRT deacetylation buffer (50 mM Tris-HCl pH 9, 4 mM MgCl2, 0.2 mM DTT). The beads were resuspended in 100 μl SIRT deacetylation buffer containing 1 μg synthetic Tat (72 amino acids) carrying an N-terminal biotin label and an acetyl group at position 50. Kaehlcke et al. (2003), supra. Reactions containing TSA (400 nM, WACO Bioproducts, Richmond, Va.) or nicotinamide (5 mM, Sigma) were preincubated for 10 min at room temperature. […] Reactions were stopped by the addition of SDS loading buffer, boiled, and after brief centrifugation, analyzed by western blotting with rabbit α-AcTat antibodies (Kaehlcke et al. (2003), supra) or horseradish peroxidase-conjugated streptavidin (Jackson Immunoresearch Laboratories, West Grove, Pa.). SIRT1-7 proteins were detected with polyclonal α-FLAG antibodies (Sigma).

[2] = system: HIV LTR luciferase (Tat/AcTat transactivation); assay: Nuclear microinjection of synthetic Tat or AcTat with HIV LTR luciferase reporter into HeLa cells; assay type: cell-based; details: for basal HIV promoter activity / transcriptional activity of AcTat (transactivation of the HIV promoter): TSA 400 nM or nicotinamide 5 mM for four hours, siRNA 48 hours before microinjection
Protocol: Subconfluent MEFs (70%) were grown on Cellocate coverslips (Eppendorf, Westbury, N.Y.), and nuclear microinjections were performed at room temperature with an automated injection system (Eppendorf Micromanipulator 5171 together with Eppendorf Transjector 5246). Samples were prepared as a 20 μl injection mix containing the HIV LTR luciferase reporter or 5xUAS luciferase (each 100 ng/μl), RSV-Tat (10 ng/μl) or Ga14-VP16 (50 ng/μl), CMV-CyclinT1 (100 ng/μl), CMV-SIRT1 (100 or 300 ng/μl) together with CMV-GFP (50 ng/μl) in sterile water. Six hours after microinjection, cells were examined under a Nikon Eclipse TE300 inverted fluorescent microscope to determine the number of GFP-positive cells, washed in cold phosphate buffer, and stored at −70° C. for luciferase assays (Promega). In HeLa cells, synthetic Tat or AcTat proteins (each 30 or 100 ng/μl) were co-injected with the wildtype or mutant HIV LTR luciferase reporters (each 100 ng/μl) together with CMV-GFP (50 ng/μl) and harvested four hours after injection. Cells were treated immediately after injection with 5,6-dichlorobenzimidazole riboside (DRB; 10 or 50 μM; Sigma), TSA (400 nM), or nicotinamide (5 mM). Microinjections in siRNA-treated cells were performed 48 hours after siRNA transfection.

[3] = system: RSV LTR; assay: RSV luciferase control reporter in transfected HeLa cells; assay type: cell-based, Rous sarcoma virus; details: 1 μM
Protocol: (§1) In co-transfection experiments, human CMV-SIRT1 or CMV-SIRT1H363Y (600 ng) was co-transfected into HeLa cells plated in six-well plates with the HIV LTR luciferase reporter (200 ng) or the LTRΔNF-kB-luciferase reporter (200 ng) and increasing amounts of RSV-Tat (0 ng, 2 ng, 20 ng, and 200 ng) using the lipofectamine reagents (Invitrogen). In the control experiment, RSV-Tat was replaced by RSV luciferase (200 ng), and the HIV LTR luciferase construct was replaced by the HIV LTR CAT reporter. […] The RSV-luciferase construct was used as described above. […] Cells were harvested 8 hr later and processed for luciferase assays.

[4] = system: HIVNL4-3 containing the GFP open reading frame in place of nef; assay: Single-cycle HIV infection of Jurkat T cells, GFP expression by flow cytometry; assay type: cell-based; details: 1 μM, 36 hours after overnight infection
Protocol: (§2) The HIV molecular clone (HIV-R7/E^−/GFP) containing the GFP open reading frame in place of the nef gene and a frameshift mutation in the env gene as well as the method to generate pseudotyped viral particles with VSV-G was previously described. Jordan et al. (2003) Embo J 22: 1868-1877. The number of infective particles per ml was established by infecting 3×10^5 Jurkat cells with different amounts of viral suspension. The titer of the viral stock was measured by flow cytometry analysis of GFP expression 48 hours after infection. The pHR′-EF-1α/GFP construct is a minimal nonreplicative HIV-1 genome containing a heterologous promoter (EF-1α) driving GFP expression. Naldini et al. (1996) Science 272: 263-267. […]. Zufferey et al. (1997) Nat Biotechnol 15: 871-875. All vectors for the production of HIV-based lentiviral vectors were provided by D. Trono, University of Geneva, Switzerland. Jurkat T cells were incubated overnight with HIV-R7/E^−/GFP or pHR′-EF-1α/GFP viral particles at a theoretical multiplicity of infection (m.o.i.) of 0.5 in 24-well plates. […] Viral infection was monitored 36 hours later by flow cytometry analysis using a Calibur FACScan (Becton Dickinson).

[5] = system: p53; assay: p53 acetylation; assay type: cell-based; details: 1 μM
[6] = system: Tat-dependent HIV transcription (HIV LTR luciferase); assay: Tat transactivation of HIV LTR luciferase reporter in transfected HeLa cells; assay type: cell-based; details: ~1 μM, 8 hours
Protocol: as §1

[7] = system: EF-1α promoter GFP expression; assay: HIV-based lentiviral vector with EF-1α promoter driving GFP in Jurkat T cells; assay type: cell-based; details: 1 μM, 36 hours
Protocol: as §2

| SMILES | SIRT1-mediated deacetylation of Tat [1] | basal HIV promoter activity [2] | transcriptional activity of AcTat (transactivation of the HIV promoter) [2] | further results |
| --- | --- | --- | --- | --- |
| NC(=O)c1cccnc1 [nicotinamide] | completely inhibited | stimulating | blocked |  |
| OC[C@H]1O[C@@H](n2cnc3cc(Cl)c(Cl)cc32)[C@H](O)[C@@H]1O [DRB, 5,6-dichlorobenzimidazole riboside] |  |  |  | transactivation by both Tat proteins (Tat and AcTat) ([2]; DRB 10 or 50 μM, four hours): inhibited in a dose-dependent manner |
| O=C1Oc2ccc3cc(Br)ccc3c2CC1c1ccccc1 (stereo not drawn) [HR73] |  |  |  | activity of the RSV LTR [3]: did not suppress; reduction of HIV gene expression as measured by GFP expression [4]: 5 fold; acetylation of p53 [5]: induced hyperacetylation; suppression of Tat-dependent HIV transcription [6]: 3 fold; GFP expression from the EF-1α promoter [7]: not affected |
| CC(/C=C/C(=O)NO)=C\[C@@H](C)C(=O)c1ccc(N(C)C)cc1 [TSA] | no effect | enhanced | enhanced |  |
